Assay results reported in patent publication US8829000B2, “Substituted imidazo[1,5-A]quinoxalines as phosphodiesterase 9 inhibitors” (ASKA Pharmaceutical Co., Ltd., priority 2006, dated 2014).
Counter-ions that a name gives are not always drawn.

System: partial urethra obstruction model in guinea pigs
Test: Dysuria pathological model: cystometry in partial urethra obstruction model
Assay type: in vivo, Hartley female guinea pigs
Details: guinea pig; for Frequency of occurrence of uninhibited contraction, before administration / Residual urine volume, before administration: baseline
Experimental: Three-four weeks old Hartley female guinea pigs (Japan SLC, Inc.) were given celiotomy under anesthesia with pentobarbital (30 mg/kg i.p.) and in their urethra to the peripheral side by 1-2 mm from the bladder neck, each a polyethylene tube of […] and 2.0 mm in inner diameter was placed.
The model was catheterized under anesthesia with urethane (1 g/kg i.p.) at the apex of urinary bladder and right jugular vein for cystometrography and intravenous administration, respectively. The other end of the bladder catheter was connected to a pressure transducer and infusion pump via a three way stop-cock, and physiological saline was continuously infused into the bladder through the infusion pump at a rate of 0.4 mL/min. to induce micturition reflex. Immediately after the micturition reflex was induced, infusion of physiological saline into the bladder was stopped. The intravesical pressure at the time the micturition reflex was induced was measured with the pressure transducer, and the obtained cystometrogram was recorded with pen recorder. The urine voided was collected with disposable type weighing dish and its weight was measured. Further the physiological saline remained in the bladder was sucked with syringe via the bladder catheter and the residual urine volume was measured. The operations of suspending the infusion of physiological saline upon induction of micturition reflex, and about 1 minute thereafter resuming the infusion of physiological saline to induce micturition reflex were repeated plural times (generally 4 times) to stabilize the micturition reflex.
After stabilizing the micturition reflex, a compound solution (prepared by dissolving the compound or methanesulfonic acid salt thereof in DMSO and diluting it with physiological saline or distilled water) or physiological saline was administered into the vein at a volume of 10 mL/kg over 4 minutes, and simultaneously the above-described micturition reflex operations were repeated until 30 minutes passed after initiation of the administration, while measuring the intravesical pressure and the volumes of micturition and residual urine. Also the frequency of uninhibited contraction occurrence during the above-described operations was recorded.

CC(C)c1ncc2c(=O)[nH]c3cc(Cl)ccc3n12 [Example 6 (methanesulfonic acid salt)]
Frequency of occurrence of uninhibited contraction, after administration (0.1 mg/kg i.v.): 1.82 times/min
Frequency of occurrence of uninhibited contraction, quantitative change (0.1 mg/kg i.v.): +0.62 times/min
Residual urine volume, after administration (0.1 mg/kg i.v.): 0.13 mL
Residual urine volume, quantitative change (0.1 mg/kg i.v.): -0.12 mL
Frequency of occurrence of uninhibited contraction, after administration (1 mg/kg i.v.): 1.97 times/min
Frequency of occurrence of uninhibited contraction, quantitative change (1 mg/kg i.v.): +0.77 times/min
Residual urine volume, after administration (1 mg/kg i.v.): 0.47 mL
Residual urine volume, quantitative change (1 mg/kg i.v.): 0.22 mL
Frequency of occurrence of uninhibited contraction, after administration (3 mg/kg i.v.): 0.68 times/min
Frequency of occurrence of uninhibited contraction, quantitative change (3 mg/kg i.v.): −0.52 times/min
Residual urine volume, after administration (3 mg/kg i.v.): 0.21 mL
Residual urine volume, quantitative change (3 mg/kg i.v.): -0.04 mL
Frequency of occurrence of uninhibited contraction, before administration (dose group 0.1 mg/kg i.v.): 1.20 times/min
Residual urine volume, before administration (dose group 0.1 mg/kg i.v.): 0.25 mL
Frequency of occurrence of uninhibited contraction, before administration (dose group 1 mg/kg i.v.): 1.20 times/min
Residual urine volume, before administration (dose group 1 mg/kg i.v.): 0.25 mL
Frequency of occurrence of uninhibited contraction, before administration (dose group 3 mg/kg i.v.): 1.20 times/min
Residual urine volume, before administration (dose group 3 mg/kg i.v.): 0.25 mL

CC(C)c1ncc2c(=O)[nH]c3cc(C(=O)N(C)C)ccc3n12 [Example 9 (methanesulfonic acid salt)]
Frequency of occurrence of uninhibited contraction, after administration (0.3 mg/kg i.v.): 1.45 times/min
Frequency of occurrence of uninhibited contraction, quantitative change (0.3 mg/kg i.v.): −0.64 times/min
Residual urine volume, after administration (0.3 mg/kg i.v.): 0.11 mL
Residual urine volume, quantitative change (0.3 mg/kg i.v.): -0.32 mL
Frequency of occurrence of uninhibited contraction, after administration (3 mg/kg i.v.): 0.99 times/min
Frequency of occurrence of uninhibited contraction, quantitative change (3 mg/kg i.v.): −1.10 times/min
Residual urine volume, after administration (3 mg/kg i.v.): 0.63 mL
Residual urine volume, quantitative change (3 mg/kg i.v.): +0.20 mL
Frequency of occurrence of uninhibited contraction, after administration (10 mg/kg i.v.): 0.00 times/min
Frequency of occurrence of uninhibited contraction, quantitative change (10 mg/kg i.v.): −0.57 times/min
Residual urine volume, after administration (10 mg/kg i.v.): 0.03 mL
Residual urine volume, quantitative change (10 mg/kg i.v.): -0.34 mL
Frequency of occurrence of uninhibited contraction, before administration (dose group 0.3 mg/kg i.v.): 2.09 times/min
Residual urine volume, before administration (dose group 0.3 mg/kg i.v.): 0.43 mL
Frequency of occurrence of uninhibited contraction, before administration (dose group 3 mg/kg i.v.): 2.09 times/min
Residual urine volume, before administration (dose group 3 mg/kg i.v.): 0.43 mL
Frequency of occurrence of uninhibited contraction, before administration (dose group 10 mg/kg i.v.): 0.57 times/min
Residual urine volume, before administration (dose group 10 mg/kg i.v.): 0.37 mL
